From patent publication US8008291B2 (Mimetica Pty Ltd, priority 2008, dated 2011)

Target: T1, human MC5R (hMC5R) (Homo sapiens, UniProt P33032)
T1 construct: purchased Perkin Elmer RBXMC5M400UA
Experiment: Human MC5R radioligand binding assay (membranes, [125I] NDP-MSH displacement)
Settings: hMC5R binding; tested as trifluoroacetate or hydrochloride salts, or free bases; read-out: MC5R radioligand IC50
In short: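 Frozen human MC5R membranes incubated with test compound and in-house iodogen-labeled, HPLC-purified [125I]NDP-MSH for 1 hr at 37° C. Binding measured as displacement of the radioligand.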

T1 sequence (P33032 whole entry): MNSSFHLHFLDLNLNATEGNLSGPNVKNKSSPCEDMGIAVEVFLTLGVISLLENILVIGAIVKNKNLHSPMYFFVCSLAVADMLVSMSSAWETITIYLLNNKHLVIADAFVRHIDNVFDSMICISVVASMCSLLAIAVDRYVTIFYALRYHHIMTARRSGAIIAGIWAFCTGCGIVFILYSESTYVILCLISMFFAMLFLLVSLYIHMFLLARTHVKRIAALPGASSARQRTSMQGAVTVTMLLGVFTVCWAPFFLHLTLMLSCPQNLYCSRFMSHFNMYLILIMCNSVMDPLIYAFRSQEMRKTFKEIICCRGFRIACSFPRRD

Row | Structure (SMILES) | IC50 [nM]
1 | CCC(CC)CN1CC[C@@H](CNC(=O)c2ccc3cc(F)ccc3c2)N[C@@H](CCN2CCCCC2)C1=O [Compound 372, N-(((3S,5S)-1-(2-ethylbutyl)-2-oxo-3-(2-(piperidin-1-yl)ethyl)-1,4-diazepan-5-yl)methyl)-6-fluoro-2-naphthamide] | < 100
2 | CCCOC(=O)N[C@H](Cc1ccc2ccccc2c1)[C@@H]1CCN(CC(c2ccccc2)c2ccccc2)C(=O)[C@H](CCCNC(=N)N)N1 [Compound 87, propyl (R)-1-((3S,5S)-1-(2,2-diphenylethyl)-3-(3-guanidinopropyl)-2-oxo-1,4-diazepan-5-yl)-2-(naphthalen-2-yl)ethylcarbamate] | < 10000
3 | CC1CC(C)CC(CN2CC[C@@H](CNC(=O)c3ccc(Cl)c(Cl)c3)N[C@@H](CCN3CCCCC3)C2=O)C1 (stereo partly drawn) [Compound 386, 3,4-dichloro-N-(((3S,5S)-1-((3,5-dimethylcyclohexyl)methyl)-2-oxo-3-(2-(piperidin-1-yl)ethyl)-1,4-diazepan-5-yl)methyl)benzamide] | < 100
4 | COC(CN1CC[C@@H](CNC(=O)c2ccc3ccccc3c2)N[C@@H](CCCNC(=N)N)C1=O)c1ccccc1 (stereo partly drawn) [Compound 289, N-(((3S,5S)-3-(3-guanidinopropyl)-1-(2-methoxy-2-phenylethyl)-2-oxo-1,4-diazepan-5-yl)methyl)-2-naphthamide] | < 1000
5 | C[C@@H](N1CC[C@@H](CNC(=O)c2ccc3ccccc3c2)N[C@@H](CCCNC(=N)N)C1=O)C(F)(c1ccccc1)c1ccccc1 [Compound 206, N-(((3S,5S)-1-((R)-1-fluoro-11-diphenylpropan-2-yl)-3-(3-guanidinopropyl)-2-oxo-1,4-diazepan-5-yl)methyl)-2-naphthamide] | < 1000
6 | NCCC[C@@H]1N[C@H](CNC(=O)C=Cc2ccccc2)CCN(CC(c2ccccc2)c2ccccc2)C1=O [Compound 212, N-(((3S,5S)-3-(3-aminopropyl)-1-(2,2-diphenylethyl)-2-oxo-1,4-diazepan-5-yl)methyl)cinnamamide] | < 1000
7 | N=C(N)NCCC[C@@H]1N[C@H](CNC(=O)c2ccc3ccccc3c2)CCN(CC2CCCCC2)C1=O [Compound 201, N-(((3S,5S)-1-(cyclohexylmethyl)-3-(3-guanidinopropyl)-2-oxo-1,4-diazepan-5-yl)methyl)-2-naphthamide] | < 1000
8 | CCN(CC)CC[C@@H]1N[C@H](CNC(=O)c2ccc3ccccc3c2)CCN(CC(c2ccccc2)c2ccccc2)C1=O [Compound 362, N-(((3S,5S)-3-(2-(diethylamino)ethyl)-1-(2,2-diphenylethyl)-2-oxo-1,4-diazepan-5-yl)methyl)-2-naphthamide] | < 100
9 | O=C(O)c1ccc2cc(C(=O)NC[C@@H]3CCN(CC(c4ccccc4)c4ccccc4)C(=O)[C@H](CCN4CCCCC4)N3)ccc2c1 [Compound 473, 6-(((3S,5S)-1-(2,2-diphenylethyl)-2-oxo-3-(2-(piperidin-1-yl)ethyl)-1,4-diazepan-5-yl)methylcarbamoyl)-2-naphthoic acid] | < 1000
10 | COc1ccc(C(CN2CC[C@@H](CNC(=O)c3ccc4ccccc4c3)N[C@@H](CCCNC(=N)N)C2=O)c2ccc(OC)cc2)cc1 [Compound 244, N-(((3S,5S)-1-(2,2-bis(4-methoxyphenyl)ethyl)-3-(3-guanidinopropyl)-2-oxo-1,4-diazepan-5-yl)methyl)-2-naphthamide] | < 10000
11 | CC(C)NCC[C@@H]1N[C@H](CNC(=O)/C=C/c2ccc(Cl)cc2)CCN(CC(c2ccccc2)c2ccccc2)C1=O [Compound 381, (E)-3-(4-chlorophenyl)-N-(((3S,5S)-1-(2,2-diphenylethyl)-3-(2-(isopropylamino)ethyl)-2-oxo-1,4-diazepan-5-yl)methyl)acrylamide] | < 100
12 | N=C(N)NCCC[C@@H]1N[C@H](CNC(=O)c2ccc3ccccc3c2)CCN(Cc2cccc3ccccc23)C1=O [Compound 263, N-(((3S,5S)-3-(3-guanidinopropyl)-1-(naphthalen-1-ylmethyl)-2-oxo-1,4-diazepan-5-yl)methyl)-2-naphthamide] | < 10000
13 | CC(C)(NC(=O)/C=C/c1ccc(Cl)cc1)[C@@H]1CCN(CC(c2ccccc2)c2ccccc2)C(=O)[C@H](CCN)N1 [Compound 419, (E)-N-(2-((3S,5S)-3-(2-aminoethyl)-1-(2,2-diphenylethyl)-2-oxo-1,4-diazepan-5-yl)propan-2-yl)-3-(4-chlorophenyl)acrylamide] | < 1000
14 | N=C(N)NCCC[C@@H]1N[C@H](CNC(=O)c2ccc3ccccc3c2)CCN(Cc2cc(Cl)cc(Cl)c2)C1=O [Compound 14, N-(((3S,5S)-1-(3,5-dichlorobenzyl)-3-(3-guanidinopropyl)-2-oxo-1,4-diazepan-5-yl)methyl)-2-naphthamide] | < 100
15 | CC[C@H](CN1CC[C@@H](CNC(=O)c2ccc(Cl)c(Cl)c2)N[C@@H](CCN(C(C)C)C(C)C)C1=O)c1ccccc1 [Compound 445, 3,4-dichloro-N-(((3S,5S)-3-(2-(diisopropylamino)ethyl)-2-oxo-1-((S)-2-phenylbutyl)-1,4-diazepan-5-yl)methyl)benzamide] | < 10
16 | CC(C)NCCCC[C@@H]1N[C@H](CNC(=O)c2ccc3ccccc3c2)CCN(CC(c2ccccc2)c2ccccc2)C1=O [Compound 229, N-(((3S,5S)-1-(2,2-diphenylethyl)-3-(4-(isopropylamino)butyl)-2-oxo-1,4-diazepan-5-yl)methyl)-2-naphthamide] | < 100
17 | CC[C@H](CN1CC[C@@H](CNC(=O)c2ccc3cc(Cl)ccc3c2)N[C@@H](CCNC(=O)NC(C)C)C1=O)c1ccccc1 [Compound 494, 6-chloro-N-(((3S,5S)-3-(2-(3-isopropylureido)ethyl)-2-oxo-1-((S)-2-phenylbutyl)-1,4-diazepan-5-yl)methyl)-2-naphthamide] | < 1000
18 | N=C(N)NCCC[C@@H]1N[C@H](CNC(=O)c2cc3ccccc3s2)CCN(CC(c2ccccc2)c2ccccc2)C1=O [Compound 135, N-(((3S,5S)-1-(2,2-diphenylethyl)-3-(3-guanidinopropyl)-2-oxo-1,4-diazepan-5-yl)methyl)benzo[b]thiophene-2-carboxamide] | < 1000
19 | O=C(C=Cc1ccccc1)NC[C@@H]1CCN(CC(c2ccccc2)c2ccccc2)C(=O)[C@H](CCN2CCCCC2)N1 [Compound 283, N-(((3S,5S)-1-(2,2-diphenylethyl)-2-oxo-3-(2-(piperidin-1-yl)ethyl)-1,4-diazepan-5-yl)methyl)cinnamamide] | < 100
20 | CC[C@H](CN1CCC(CNC(=O)c2ccc3cc(Cl)ccc3c2)NC(C2CCN(CCC(C)C)CC2)C1=O)c1ccccc1 (stereo partly drawn) [Compound 448] | < 100
21 | CC[C@H](CN1CC[C@@H](CNC(=O)c2ccc(Cl)c(Cl)c2)N[C@@H](CCN(C)c2ccccc2)C1=O)c1ccccc1 [Compound 425, 3,4-dichloro-N-(((3S,5S)-3-(2-(methyl(phenyl)amino)ethyl)-2-oxo-1-((S)-2-phenylbutyl)-1,4-diazepan-5-yl)methyl)benzamide] | < 1000

Next, values leading:

Row | IC50 [nM] | Structure (SMILES)
22 | < 100 | CCC(CC)CN1CC[C@@H](CNC(=O)c2ccc3ccccc3c2)N[C@@H](CCN2CCCCC2)C1=O [Compound 333, N-(((3S,5S)-1-(2-ethylbutyl)-2-oxo-3-(2-(piperidin-1-yl)ethyl)-1,4-diazepan-5-yl)methyl)-2-naphthamide]
23 | < 100 | CC[C@H](CN1CC[C@@H](CNC(=O)c2ccc3cc(Cl)ccc3c2)N[C@@H](CCCN2CCCCC2)C1=O)c1ccccc1 [Compound 417, 6-chloro-N-(((3S,5S)-2-oxo-1-((S)-2-phenylbutyl)-3-(3-(piperidin-1-yl)propyl)-1,4-diazepan-5-yl)methyl)-2-naphthamide]
24 | < 1000 | CC(C)[C@@H](CN1CC[C@@H](CNC(=O)c2ccc3ccccc3c2)N[C@@H](CCN2CCCCC2)C1=O)c1ccccc1 [Compound 394, N-(((3S,5S)-1-((R)-3-methyl-2-phenylbutyl)-2-oxo-3-(2-(piperidin-1-yl)ethyl)-1,4-diazepan-5-yl)methyl)-2-naphthamide]
25 | < 10 | CC[C@H](CN1CC[C@@H](CNC(=O)c2cc(-c3ccc(Cl)cc3)on2)N[C@@H](CCN2CCCCC2)C1=O)c1ccccc1 [Compound 533, 5-(4-chlorophenyl)-N-(((3S,5S)-2-oxo-1-((S)-2-phenylbutyl)-3-(2-(piperidin-1-yl)ethyl)-1,4-diazepan-5-yl)methyl)isoxazole-3-carboxamide]
26 | < 10 | O=C(NC[C@@H]1CCN(CC(c2ccccc2)c2ccccc2)C(=O)[C@H](CCN2CCCCC2)N1)c1ccc2cc(Cl)ccc2c1 [Compound 378, 6-chloro-N-(((3S,5S)-1-(2,2-diphenylethyl)-2-oxo-3-(2-(piperidin-1-yl)ethyl)-1,4-diazepan-5-yl)methyl)-2-naphthamide]
27 | < 10 | CC[C@@H](CN1CC[C@@H](CNC(=O)c2ccc3cc(Cl)ccc3c2)N[C@@H](CCN2CCCCC2)C1=O)c1ccccc1 [Compound 526, 6-chloro-N-(((3S,5S)-2-oxo-1-((R)-2-phenylbutyl)-3-(2-(piperidin-1-yl)ethyl)-1,4-diazepan-5-yl)methyl)-2-naphthamide]
28 | < 100 | CC[C@H](CN1CC[C@@H](CNC(=O)c2ccc3cc(Cl)ccc3c2)N[C@@H](CCN2CCCCC2)C1=O)C(C)C [Compound 472, 6-chloro-N-(((3S,5S)-1-((S)-2-ethyl-3-methylbutyl)-2-oxo-3-(2-(piperidin-1-yl)ethyl)-1,4-diazepan-5-yl)methyl)-2-naphthamide]
29 | < 100 | CC[C@@H](CN1CC[C@@H](CNC(=O)/C=C/c2ccc(Cl)cc2)N[C@@H](CCN2CCCCC2)C1=O)c1ccccc1 [Compound 364, (E)-3-(4-chlorophenyl)-N-(((3S,5S)-2-oxo-1-((R)-2-phenylbutyl)-3-(2-(piperidin-1-yl)ethyl)-1,4-diazepan-5-yl)methyl)acrylamide]
30 | < 100 | CC[C@H](CN1CC[C@@H](CNC(=O)c2ccc3ccccc3c2)N[C@@H](CCN2CCCCC2)C1=O)c1ccccc1 [Compound 38, N-(((3S,5S)-2-oxo-1-((S)-2-phenylbutyl)-3-(2-(piperidin-1-yl)ethyl)-1,4-diazepan-5-yl)methyl)-2-naphthamide]
